Read-outs that look alike come from different tables or passages of the source. *1 amine or outer side, *2 acyl side, *3 side chain or, on linkers, in order; H or OH if unused. Where a SMILES comes first, the peptide text is derived from it. Bridges are numbered along the chain shown (N, C = ends). [ ]: non-standard residue; d: D form. The star is where a group is joined. C20 diacid = O=C(O)CCCCCCCCCCCCCCCCCCC(=O)*; γGlu = O=C(O)[C@H](CCC(=O)[*:2])N[*:1]; Hyp = O=C(O)[C@@H]1C[C@@H](O)CN1; NMeI = CC[C@H](C)[C@H](NC)C(=O)O; Aad = N[C@@H](CCCC(=O)O)C(=O)O; Sar = CNCC(=O)O
How the values were obtained:
[1] = target: T1, human amylin receptor 3 (hAMYR3), hCTR2 co-expressed with hRAMP3 (Homo sapiens, UniProt O60896+P30988); experiment: hAMYR3 cAMP assay (AlphaScreen) in COS7 cells; type: cell-based
T1 construct: expressed in transfected cells
T1 sequence (P30988 25-474): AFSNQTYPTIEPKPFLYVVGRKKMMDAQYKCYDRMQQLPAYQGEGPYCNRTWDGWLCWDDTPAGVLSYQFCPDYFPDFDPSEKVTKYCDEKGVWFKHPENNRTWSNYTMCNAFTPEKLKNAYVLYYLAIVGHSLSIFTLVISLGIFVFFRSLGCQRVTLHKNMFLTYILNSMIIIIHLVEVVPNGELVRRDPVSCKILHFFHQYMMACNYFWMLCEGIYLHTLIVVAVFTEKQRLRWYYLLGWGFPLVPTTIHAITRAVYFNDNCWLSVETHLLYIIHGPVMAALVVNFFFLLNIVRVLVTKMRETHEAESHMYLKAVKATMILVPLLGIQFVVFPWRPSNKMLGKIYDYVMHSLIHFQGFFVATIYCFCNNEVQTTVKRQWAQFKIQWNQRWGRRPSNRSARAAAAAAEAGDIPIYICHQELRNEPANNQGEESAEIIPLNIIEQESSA
T1 sequence (O60896 24-148 partner): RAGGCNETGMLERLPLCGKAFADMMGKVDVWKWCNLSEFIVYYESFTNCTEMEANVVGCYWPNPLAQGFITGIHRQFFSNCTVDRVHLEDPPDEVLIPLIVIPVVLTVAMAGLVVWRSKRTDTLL
In short: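 EC50 values derive from 4PL curve fits of cAMP (AlphaScreen) in lysates of RAMP-naive COS7 cells stably carrying hCTR2 plus hRAMP3. Peptide dilution series were applied for 15 min at 37 °C in pH 7.4 Tyrode buffer containing 100 µM IBMX and 0.1% casein.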

[2] = Assessment of physical stability (Thioflavin T fibrillation); type: physicochemical; set-up: key: FND = fibrillation not detected; FD = fibrillation detected; settings: 1 mg/ml, 40° C., ThT
In short: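 Fibrillation lag-time, in hours, taken where regressions of the initial stable phase and the growth phase intersect. ThT (40 μM) fluorescence monitored at 40 °C for 96 h, 10-min reads each preceded by 300 s mixing. Peptide at 1 mg/ml in 50 mM buffers: phosphate or histidine pH 7.0, acetate pH 4.0.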

[3] = target: T2, human calcitonin receptor (hCTR2) (Homo sapiens, UniProt P30988); experiment: hCTR2 cAMP assay (AlphaScreen) in COS7 cells; type: cell-based
T2 construct: expressed in transfected cells
T2 sequence (P30988 25-474): T1 sequence (P30988 25-474)
In short: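 cAMP induction, read by AlphaScreen after lysis, gives EC50 values via 4PL curve fitting. Peptides were applied at rising concentrations for 15 min at 37 °C, with IBMX and 0.1% casein in HEPES-buffered Tyrode pH 7.4, to COS7 cells (no endogenous RAMPs) stably expressing human CTR2.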

[4] = Assessment of chemical stability (RP-HPLC normalized purity); type: physicochemical; settings: for Normalized purity pH 4 (Table 5): pH 4, repeat of Example 6 for pairs with/without Asn-Asn at 21-22; for Normalized purity pH 6 (Table 5): pH 6, repeat of Example 6 for pairs with/without Asn-Asn at 21-22; for Normalized purity pH 7.5 (Table 5): pH 7.5, repeat of Example 6 for pairs with/without Asn-Asn at 21-22; for Normalized purity pH 9 (Table 5): pH 9, repeat of Example 6 for pairs with/without Asn-Asn at 21-22
In short: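 Purity after 7 days at 40° C is expressed relative to T=0 (set to 100) for each pH. Samples at 0.2 mg/ml, pH 4, 6, 7.5 or 9, analyzed by RP-HPLC with UV 220 nm on C8 (ammonium formate) or C18 (TFA) gradients.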

Compound | EC50 ([1]; cAMP induction, COS7 cells expressing hAMYR3, Table 1, read-out: hAMYR3 EC50) | Fibrillation pH 4.0 (Ac) ([2]; 50 mM acetate buffer pH 4.0, 96 hours) | Fibrillation pH 7.0 (His) ([2]; 50 mM histidine buffer pH 7.0, 96 hours) | Fibrillation pH 7.0 (Phos.) ([2]; 50 mM phosphate buffer pH 7.0, 96 hours) | EC50 ([3]; cAMP induction, COS7 cells expressing hCTR2, Table 1, read-out: hCTR2 EC50) | Normalized purity pH 4 (Table 5) [4] | Normalized purity pH 6 (Table 5) [4] | Normalized purity pH 7.5 (Table 5) [4] | Normalized purity pH 9 (Table 5) [4] | EC50 [1] | EC50 [3]
CC[C@H](C)[C@@H](C(=O)N[C@@H](CC(C)C)C(=O)N[C@@H](CO)C(=O)N[C@@H](CO)C(=O)N[C@H](C(=O)N[C@@H](CCC(=O)O)C(=O)N[C@H](C(=O)NCC(=O)N[C@@H](CO)C(=O)N[C@@H](CCC(=O)O)C(=O)N[C@H](C(=O)N1CCC[C@H]1C(N)=O)[C@@H](C)O)C(C)C)[C@@H](C)O)N(C)C(=O)[C@H](C)NC(=O)CN(C)C(=O)[C@H](Cc1ccccc1)NC(=O)[C@H](CO)NC(=O)[C@H](CO)NC(=O)[C@H](CCCNC(=N)N)NC(=O)[C@H](Cc1c[nH]cn1)NC(=O)[C@H](CC(C)C)NC(=O)[C@H](Cc1ccccc1)NC(=O)[C@H](CC(=O)O)NC(=O)[C@H](C)NC(=O)[C@H](CC(C)C)NC(=O)[C@H](CCCNC(=N)N)NC(=O)[C@H](CCC(N)=O)NC(=O)[C@@H](NC(=O)[C@H](C)NC(=O)[C@@H]1CSSC[C@H](NC(=O)[C@H](CCCNC(=N)N)NC(=O)CC[C@H](NC(=O)CCCCCCCCCCCCCCCCCCC(=O)O)C(=O)O)C(=O)N[C@@H](CC(N)=O)C(=O)N[C@@H]([C@@H](C)O)C(=O)N[C@@H](C)C(=O)N[C@@H]([C@@H](C)O)C(=O)N1)[C@@H](C)O [Compound 1, [19CD]-isoGlu-R-C( )-NTAT-C( )-ATQRLADFLHRSSF-Gly(Me)-A-Ile(Me)-LSSTEVGSETP-NH2] ({C20 diacid-γGlu}-RCNTATCATQRLADFLHRSSF[Sar]A[NMeI]LSSTEVGSETP-NH2; disulfide 2-7) | 0.23 nM | FND | FND | FND | 0.079 nM |  |  |  |  |  | 
CC[C@H](C)[C@@H](C(=O)N[C@@H](CC(C)C)C(=O)N[C@@H](CO)C(=O)N[C@@H](CO)C(=O)N[C@H](C(=O)N[C@@H](CCC(=O)O)C(=O)N[C@H](C(=O)NCC(=O)N[C@@H](CO)C(=O)N[C@@H](CC(N)=O)C(=O)N[C@H](C(=O)N1C[C@H](O)C[C@H]1C(N)=O)[C@@H](C)O)C(C)C)[C@@H](C)O)N(C)C(=O)[C@H](C)NC(=O)CN(C)C(=O)[C@H](Cc1ccccc1)NC(=O)[C@H](CC(N)=O)NC(=O)[C@H](CC(N)=O)NC(=O)[C@H](CO)NC(=O)[C@H](CO)NC(=O)[C@H](CCCNC(=N)N)NC(=O)[C@H](CCC(N)=O)NC(=O)[C@H](CC(C)C)NC(=O)[C@H](Cc1ccccc1)NC(=O)[C@H](CCCC(=O)O)NC(=O)[C@H](C)NC(=O)[C@H](CC(C)C)NC(=O)[C@H](CCCNC(=N)N)NC(=O)[C@H](CCC(=O)O)NC(=O)[C@@H](NC(=O)[C@H](C)NC(=O)[C@@H]1CSSC[C@H](NC(=O)[C@H](CCCNC(=N)N)NC(=O)CC[C@H](NC(=O)CCCCCCCCCCCCCCCCCCC(=O)O)C(=O)O)C(=O)NCC(=O)N[C@@H]([C@@H](C)O)C(=O)N[C@@H](C)C(=O)N[C@@H]([C@@H](C)O)C(=O)N1)[C@@H](C)O [Compound 98, [19CD]-isoGlu-R-C( )-GTAT-C( )-ATERLA-Aad-FLQRSSNNF-Gly(Me)-A-Ile(Me)-LSSTEVGSNT-Hyp-NH2, reference compound] ({C20 diacid-γGlu}-RCGTATCATERLA[Aad]FLQRSSNNF[Sar]A[NMeI]LSSTEVGSNT[Hyp]-NH2; disulfide 2-7) |  |  |  |  |  | A (A = >90%) | A (A = >90%) | B (B = 70-90%) | B (B = 70-90%) | 0.38 nM | 7.2 nM
CC[C@H](C)[C@@H](C(=O)N[C@@H](CC(C)C)C(=O)N[C@@H](CO)C(=O)N[C@@H](CO)C(=O)N[C@H](C(=O)N[C@@H](CCC(=O)O)C(=O)N[C@H](C(=O)NCC(=O)N[C@@H](CO)C(=O)N[C@@H](CC(N)=O)C(=O)N[C@H](C(=O)N1C[C@H](O)C[C@H]1C(N)=O)[C@@H](C)O)C(C)C)[C@@H](C)O)N(C)C(=O)[C@H](C)NC(=O)CN(C)C(=O)[C@H](Cc1ccccc1)NC(=O)[C@H](CC(N)=O)NC(=O)[C@H](CC(N)=O)NC(=O)[C@H](CO)NC(=O)[C@H](CO)NC(=O)[C@H](CCCNC(=N)N)NC(=O)[C@H](CCC(N)=O)NC(=O)[C@H](CC(C)C)NC(=O)[C@H](Cc1ccccc1)NC(=O)[C@H](Cc1c[nH]cn1)NC(=O)[C@H](C)NC(=O)[C@H](CC(C)C)NC(=O)[C@H](CCCNC(=N)N)NC(=O)[C@H](CCC(=O)O)NC(=O)[C@@H](NC(=O)[C@H](C)NC(=O)[C@@H]1CSSC[C@H](NC(=O)[C@H](CCCNC(=N)N)NC(=O)CC[C@H](NC(=O)CCCCCCCCCCCCCCCCCCC(=O)O)C(=O)O)C(=O)N[C@@H](CCC(N)=O)C(=O)N[C@@H]([C@@H](C)O)C(=O)N[C@@H](C)C(=O)N[C@@H]([C@@H](C)O)C(=O)N1)[C@@H](C)O [Compound 99, [19CD]-isoGlu-R-C( )-QTAT-C( )-ATERLAHFLQRSSNNF-Gly(Me)-A-Ile(Me)-LSSTEVGSNT-Hyp-NH2, reference compound] ({C20 diacid-γGlu}-RCQTATCATERLAHFLQRSSNNF[Sar]A[NMeI]LSSTEVGSNT[Hyp]-NH2; disulfide 2-7) |  |  |  |  |  | A (A = >90%) | A (A = >90%) | B (B = 70-90%) | B (B = 70-90%) | 0.59 nM | 3.8 nM
CC[C@H](C)[C@@H](C(=O)N[C@@H](CC(C)C)C(=O)N[C@@H](CO)C(=O)N[C@@H](CO)C(=O)N[C@H](C(=O)N[C@@H](CCC(=O)O)C(=O)N[C@H](C(=O)NCC(=O)N[C@@H](CO)C(=O)N[C@@H](CC(N)=O)C(=O)N[C@H](C(=O)N1C[C@H](O)C[C@H]1C(N)=O)[C@@H](C)O)C(C)C)[C@@H](C)O)N(C)C(=O)[C@H](C)NC(=O)CN(C)C(=O)[C@H](Cc1ccccc1)NC(=O)[C@H](CC(N)=O)NC(=O)[C@H](CC(N)=O)NC(=O)[C@H](CO)NC(=O)[C@H](CO)NC(=O)[C@H](CCCNC(=N)N)NC(=O)[C@H](CCC(N)=O)NC(=O)[C@H](CC(C)C)NC(=O)[C@H](Cc1ccccc1)NC(=O)[C@H](CCCC(=O)O)NC(=O)[C@H](C)NC(=O)[C@H](CC(C)C)NC(=O)[C@H](CCCNC(=N)N)NC(=O)[C@H](CC(=O)O)NC(=O)[C@@H](NC(=O)[C@H](C)NC(=O)[C@@H]1CSSC[C@H](NC(=O)[C@H](CCCNC(=N)N)NC(=O)CC[C@H](NC(=O)CCCCCCCCCCCCCCCCCCC(=O)O)C(=O)O)C(=O)N[C@@H](CCC(N)=O)C(=O)N[C@@H]([C@@H](C)O)C(=O)N[C@@H](C)C(=O)N[C@@H]([C@@H](C)O)C(=O)N1)[C@@H](C)O [Compound 100, [19CD]-isoGlu-R-C( )-QTAT-C( )-ATDRLA-Aad-FLQRSSNNF-Gly(Me)-A-Ile(Me)-LSSTEVGSNT-Hyp-NH2, reference compound] ({C20 diacid-γGlu}-RCQTATCATDRLA[Aad]FLQRSSNNF[Sar]A[NMeI]LSSTEVGSNT[Hyp]-NH2; disulfide 2-7) |  |  |  |  |  | A (A = >90%) | A (A = >90%) | A (A = >90%) | B (B = 70-90%) | 0.53 nM | 2.2 nM

From patent US20210115104A1, “AMYLIN ANALOGUES” (Zealand Pharma A/S, priority 2015, published 2021)
